Common to all, as to format: cell-based
Experiment [1] concerns HIV-1 NL43. The experiment can be described thus: Viral integration in primary resting CD4 T-cells by Alu-PCR. Conditions: NL43, 1 μM, T48 h. As for the experimental part: To determine if JQ1(+) affects viral integration in primary resting CD4 T-cells, the cells were purified and infected with HIV-1 NL43 or mock control. The infected cells were then cultured in the presence of 1 μM of JQ1(+) or JQ1(−) for 48 hours. Cell pellets were collected at 0 hours and 48 hours after infection. DNA was isolated and the viral integration in resting CD4 T-cells was measured by Alu-PCR.

Experiment [2] concerns HIV LTR. Briefly: Reactivation of the HIV LTR in latently infected J-Lat clones (GFP by flow cytometry). Particulars: J-Lat clones, TNFα 20 ng/ml or PHA 1.5 μg/ml, 16 hours. As for the experimental part:
(§1) GFP expression was measured by flow cytometry. FIGS. 3B and 3C shown the percentage of cells positive for GFP (FIG. 3B) and the mean MFI of GFP (FIG. 3C) in latently infected cell lines, J-Lat clones 82, A72, A7, A2, and A1, at 16 hours after TNFα or PHA was added in the cultures in the presence of JQ1(+) or JQ1(−). […] GFP expression in cells was measured by flow cytometry and is indicated as percent of GFP+ cells in gated live cell populations. An average of 5 experiments is shown. * p<0.05, ** p<0.01, *** p<0.001. […] Average of 3 experiments is shown. * p<0.05. For FIG. 3F, J-Lat A2 and A72 cells were reactivated with TNFα (20 ng/ml) or HIV Tat protein (50 μg/ml) in the presence of JQ1(+) or JQ1(−) for 16-18 hours, and GFP expression in cells was measured by flow cytometry. One representative experiment is shown. In each dot plot, non-underlined numbers indicate percentage of GFP+ cells and underlined numbers indicate mean fluorescence of GFP (MFI).
(§2) Next, the effect of JQ1 on activation of the HIV LTR was tested using a latently infected Jurkat-derived cell clone, J-Lat clone A2. GFP expression in J-Lat clone A2 is induced upon reactivation with tumor necrosis factor-alpha (TNFα) or phytohaemagglutinin (PHA).
To further study the mechanism of how JQ1 drives reactivation of HIV latency, HIV latently infected T-cell lines—J-Lat clones A1, A2, A7, and A72—were utilized. The effect of JQ1(+) on reactivation of HIV latency in these cell lines were confirmed. TNFα (20 ng/ml) or PHA (1.5 μg/ml) was added to cultures of J-Lat clones in the presence of 1 μM JQ1(+) or JQ1(−). After 16 hours, expression of GFP was measured by flow cytometry. […] In the presence of HIV Tat, BET antagonism enhances Tat-driven transcription of the HIV LTR in J-Lat clones A2 and A72 (FIG. 3F; underlined numbers indicate mean GFP fluorescence, non-underlined numbers indicate percent of GFP+ cells). […] Displacement of Brd4 from chromatin by JQ1(+) may cause conformational change in the chromatin, exposing NF-κb binding sites, leading to increased HIV transcription and reactivation of latency.
Background: Flow cytometry measures light scatter and fluorescence of single cells or particles in a stream.

Experiment [3] deals with HIV-1 LTR promoter. The experiment can be described thus: Activation of the HIV LTR in CEMss LTR-GFP reporter cells (GFP by flow cytometry). Particulars: CEMss LTR-GFP cells, 8 μg/ml HIV-1 Tat alone. As for the experimental part: CEMss LTR-GFP cells were infected with NL43 and cultured in the presence of the BET antagonists JQ1(+) (1 μM) or the control enantiomer JQ1(−). GFP expression in cells was examined by flow cytometry. A representative of three experiments is shown. FIG. 2B provides a graph showing GFP expression in cells when cultured with different amounts of JQ1, as determined by flow cytometry. 0.25 μM of JQ1(+) was sufficient to dramatically increase the expression of GFP in NL43 infected CEMss LTR-GFP cells. FIGS. 2C and 2D show percentage of GFP expression (FIG. 2C) and mean fluorescence of GFP (MFI; FIG. 2D) in CEMss LTR-GFP cells cultured in the presence of JQ1(+) or JQ1(−) (1 μM), and different amount of HIV-1 Tat. FIG. 2E provides dot plots of CEMss LTR-GFP cells were cultured with increasing amounts of HIV Tat (0, 8, 16 or 32 μg/ml) in the presence of JQ1(+) or JQ1(−) (1 μM) for 1 day. Non-underlined numbers indicate percentage of GFP and underlined numbers indicate mean fluorescence of GFP (MFI).
as §1
BET antagonists also drive activation of the HIV LTR. Specifically, the effects of JQ1 on transcription from the HIV LTR were tested. CEMss LTR-GFP cells (a reporter cell line stably transfected with GFP under the control of the HIV-1 LTR promoter) were infected with NL43 and cultured in the presence of BET antagonists or controls. GFP expression was measured at days 0, 1, 2, 3, and 6 post-infection. GFP expression was higher in the presence of the BET inhibitor (JQ1) compared to controls (FIG. 2A). Further, by varying the amount of JQ1, it was determined that 0.25 μM of JQ1(+) was sufficient to dramatically increase Tat-driven HIV-1 transcription (FIG. 2B). CEMss LTR-GFP cells were also cultured in the presence of JQ1(+) or JQ1(−) (1 μM) and different amount of HIV-1 Tat (0-32 μg/ml). […] FIG. 2E provides dot plots of the experiments.
as §2

As to `Cc1sc2c(c1C)C(c1ccc(Cl)cc1)=N[C@@H](CC(=O)OC(C)(C)C)c1nnc(C)n1-2` [JQ1(−)], the provirus/cell in experiment [1] (Exp. 1, primary resting CD4 T-cells) stood at 0.527 ± 0.064 provirus/cell; in experiment [1] (Exp. 2, primary resting CD4 T-cells) it was 0.400 ± 0.0009 provirus/cell.

Take TNFα: in experiment [2], the “GFP expression (reactivation of latently infected cells)” value is reported as “induced GFP expression”.

B1: HIV-1 Tat: HIV Tat protein added to reporter cell cultures (protein, UniProt P04608 1-86, looked up)
Protein Tat: MEPVDPRLEPWKHPGSQPKTACTNCYCKKCCFHCQVCFITKALGISYGRKKRRQRRRAHQNSQTHQASLSKQPTSQPRGDPTGPKE
Turning to B1, in experiment [3], the “Expression of GFP (percentage)” value was “activated”.

These data come from US9387231B2, “Compositions comprising a Brd4 antagonist and methods for the treatment of HIV” (THE CHILDREN'S HOSPITAL OF PHILADELPHIA, priority 2011, dated 2016).
